Like-named read-outs stand apart in the source and are kept apart here.
Tests used:
[1] = target: T1, G9a (Homo sapiens, UniProt Q96KQ7); experiment: AlphaLISA based G9a methyltransferase inhibition screening (H3K9 dimethylation); format: biochemical
T1 construct: purchased Sigma-Aldrich
T1 sequence (Q96KQ7 1-1210): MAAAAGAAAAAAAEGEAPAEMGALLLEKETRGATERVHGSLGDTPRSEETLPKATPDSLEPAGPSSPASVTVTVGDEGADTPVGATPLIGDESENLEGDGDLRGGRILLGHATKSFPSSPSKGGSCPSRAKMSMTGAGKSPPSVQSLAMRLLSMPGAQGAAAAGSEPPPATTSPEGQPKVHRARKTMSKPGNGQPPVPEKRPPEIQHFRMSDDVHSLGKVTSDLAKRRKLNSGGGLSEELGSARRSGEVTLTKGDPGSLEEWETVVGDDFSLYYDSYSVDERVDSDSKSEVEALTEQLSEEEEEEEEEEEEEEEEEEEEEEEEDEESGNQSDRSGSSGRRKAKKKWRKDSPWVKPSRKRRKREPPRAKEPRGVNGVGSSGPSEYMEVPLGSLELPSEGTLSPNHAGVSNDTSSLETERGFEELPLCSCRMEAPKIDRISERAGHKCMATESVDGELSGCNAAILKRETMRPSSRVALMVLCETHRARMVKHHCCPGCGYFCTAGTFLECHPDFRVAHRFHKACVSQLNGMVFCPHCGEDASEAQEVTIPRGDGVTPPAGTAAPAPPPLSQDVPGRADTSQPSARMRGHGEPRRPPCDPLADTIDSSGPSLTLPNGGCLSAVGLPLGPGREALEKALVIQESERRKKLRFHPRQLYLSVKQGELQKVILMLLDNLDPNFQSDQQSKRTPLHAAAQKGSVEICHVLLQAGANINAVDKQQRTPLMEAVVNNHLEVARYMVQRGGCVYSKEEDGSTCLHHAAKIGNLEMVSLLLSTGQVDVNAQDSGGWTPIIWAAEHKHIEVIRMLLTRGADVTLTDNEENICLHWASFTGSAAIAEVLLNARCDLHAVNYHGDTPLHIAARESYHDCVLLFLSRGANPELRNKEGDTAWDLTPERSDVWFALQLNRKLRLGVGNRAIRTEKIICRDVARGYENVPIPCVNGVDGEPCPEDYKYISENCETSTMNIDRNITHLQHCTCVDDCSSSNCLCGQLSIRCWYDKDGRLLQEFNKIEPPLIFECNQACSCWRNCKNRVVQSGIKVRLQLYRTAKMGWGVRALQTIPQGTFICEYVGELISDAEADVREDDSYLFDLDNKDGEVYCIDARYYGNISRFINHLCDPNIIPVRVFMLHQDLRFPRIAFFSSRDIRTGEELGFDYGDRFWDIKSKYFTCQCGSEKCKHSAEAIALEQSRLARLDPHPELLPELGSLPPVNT
Description: Inhibition of G9a was examined in an AlphaLISA based format with protocols provided by PerkinElmer. In brief, compounds were incubated for 30 min on white 384-well microplates at the indicated concentration and with 5 nM G9a (Supplementary Information, Figure S1), 100 nM histone H3 (1–21) fragment and 15 µM SAM in assay buffer (50 mM Tris–HCl (pH = 9.0); 50 mM NaCl, 1 mM dithiothreitol, 0.01% Tween-20). Incubation was terminated by addition of anti-H3K9me2 acceptor beads in provided detection buffer. After incubating the mixture for 60 min, streptavidin-coated donor beads were added to the mix for additional 30 min. Luminescence was then measured using the AlphaLISA luminescence filter of an Infinite M1000pro multiplate reader (Tecan, Maennedorf, Switzerland) for 1,000 ms (integration time).
For experiments employing radiolabeled ligands, raw data that were measured as counts-per-minute [c.p.m.] were reduced by non-specific binding. For affinity measurements, such results were fitted to least-squares method “One site competition” of GraphPad Prism version 7.0 (La Jolla, CA, United States) and final values were calculated as means [95% confidence interval]. […] Data were stated as means ± s.d. […] Data were stated as means ± s.d. with the indicated number of replicates. For CRE-Luc assays, data were normalized to luminescence derived by forskolin containing samples (= 100%) and minimum luminescence measured in samples containing forskolin + N^α-methylhistamine (10 µM) (= 0%). Data from both experiments were globally fit to the “Gaddum/Schild EC50 shift” model of GraphPad Prism and were stated as means [95% confidence interval].

[2] = target: T2, human isoform of histamine H3 receptor (hH3R) (Homo sapiens, UniProt Q9Y5N1); experiment: [3H]Nα-methylhistamine displacement at hH3R, membranes of transfected HEK-293T cells; format: binding
T2 construct: expressed in transfected cells; host or cells: HEK-293T
T2 sequence (Q9Y5N1 whole entry, canonical isoform): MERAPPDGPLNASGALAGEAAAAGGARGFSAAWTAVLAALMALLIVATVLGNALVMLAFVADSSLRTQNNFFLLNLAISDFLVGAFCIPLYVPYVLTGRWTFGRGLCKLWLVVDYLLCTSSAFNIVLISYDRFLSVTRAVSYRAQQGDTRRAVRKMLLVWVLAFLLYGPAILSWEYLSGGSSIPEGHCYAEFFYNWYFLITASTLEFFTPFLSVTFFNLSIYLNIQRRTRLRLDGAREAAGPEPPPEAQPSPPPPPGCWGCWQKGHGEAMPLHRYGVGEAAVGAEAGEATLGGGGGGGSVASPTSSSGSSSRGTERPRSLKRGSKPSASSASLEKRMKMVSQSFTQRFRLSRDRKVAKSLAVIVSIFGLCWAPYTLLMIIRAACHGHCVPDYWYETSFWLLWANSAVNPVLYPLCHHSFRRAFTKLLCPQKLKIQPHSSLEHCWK
Description: NM_007232.3) was determined in radioligand displacement studies at membrane preparations of transfected HEK-293 T cells. […] The workflow to terminate incubation and measurement of bound radioligand was identical for both experimental set-ups. Briefly, samples were filtrated from microplates onto GF/B filters presoaked with 0.3% polyethyleneimine solution using a 96-well cell harvester. Filter mats were washed three times with water at 4 °C, dried for 60 min (54 °C), soaked with scintillation liquid (Betaplate Scint, PerkinElmer), sealed and subjected to scintillation counting. For experiments employing radiolabeled ligands, raw data that were measured as counts-per-minute [c.p.m.] were reduced by non-specific binding. For affinity measurements, such results were fitted to least-squares method “One site competition” of GraphPad Prism version 7.0 (La Jolla, CA, United States) and final values were calculated as means [95% confidence interval]. […] Data were stated as means ± s.d. […] Data were stated as means ± s.d. with the indicated number of replicates. […] Data from both experiments were globally fit to the “Gaddum/Schild EC50 shift” model of GraphPad Prism and were stated as means [95% confidence interval].

[3] = target: T3, rat isoform of H3R (rH3R) (Rattus norvegicus, UniProt Q9QYN8); experiment: CRE-Luc reporter gene Schild assay at rH3R in HEK-293T cells; format: cell-based
T3 construct: expressed in transfected cells; host or cells: HEK-293T
T3 sequence (Q9QYN8 whole entry, canonical isoform): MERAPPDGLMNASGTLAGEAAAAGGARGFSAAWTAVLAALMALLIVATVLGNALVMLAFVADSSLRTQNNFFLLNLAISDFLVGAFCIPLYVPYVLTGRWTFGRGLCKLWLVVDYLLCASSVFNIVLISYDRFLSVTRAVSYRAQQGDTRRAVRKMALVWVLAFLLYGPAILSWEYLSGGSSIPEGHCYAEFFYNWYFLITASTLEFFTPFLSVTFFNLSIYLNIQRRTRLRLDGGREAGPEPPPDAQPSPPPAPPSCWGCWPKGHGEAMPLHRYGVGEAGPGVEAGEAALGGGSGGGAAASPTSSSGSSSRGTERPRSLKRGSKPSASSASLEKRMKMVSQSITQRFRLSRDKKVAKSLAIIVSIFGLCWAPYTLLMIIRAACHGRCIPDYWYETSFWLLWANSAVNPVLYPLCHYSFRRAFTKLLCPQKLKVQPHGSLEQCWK
Description: The mixture was incubated for 5 h under culture conditions. […] Lysed homogenate was transferred into white microplates. […] For experiments employing radiolabeled ligands, raw data that were measured as counts-per-minute [c.p.m.] were reduced by non-specific binding. […] Data were stated as means ± s.d. […] Data were stated as means ± s.d. with the indicated number of replicates.

[4] = target: Spindlin1 (Homo sapiens, UniProt Q9Y657); experiment: Spindlin1 inhibition, fluorescence polarization displacement assay; format: binding; conditions: for Spindlin1 inhibition: fluorescence polarization-based screening
Spindlin1, sequence (Q9Y657 whole entry, species assumed): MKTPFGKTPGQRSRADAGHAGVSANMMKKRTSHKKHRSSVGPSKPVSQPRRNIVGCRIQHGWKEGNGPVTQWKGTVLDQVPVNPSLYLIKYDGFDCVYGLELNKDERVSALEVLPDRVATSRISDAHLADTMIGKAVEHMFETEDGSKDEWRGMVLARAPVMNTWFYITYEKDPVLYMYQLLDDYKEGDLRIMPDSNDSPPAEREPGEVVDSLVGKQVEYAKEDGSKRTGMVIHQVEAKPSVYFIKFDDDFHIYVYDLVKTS
Description: Spindlin1 inhibition was determined using the fluorescence polarization displacement assay described by Wagner et al.[37] For the IC50 values, 12 concentrations were measured in triplicates.

Row | SMILES | inhibition at 10 µM [1] [%] | Spindlin1 inhibition [4] | also measured
1 | COc1cc2c(cc1OCCCN1CCCC1)N=C(N)C21CCC1 [A-366] | 100 ± 0.04 |  | Ki ([2]; [3H]Nα-methylhistamine 2 nM, 90 min, mean [95% CI], read-out: hH3R affinity Ki [CI95%]): 17 nM; Kb [3]: 15 nM; Schild-plot slope ([3]; rH3R, mean ± 95% confidence interval, not significantly different from unity): 0.79 ± 0.45
2 | O=C(c1ccc(OCCCc2cnc[nH]2)cc1)C1CC1 [Ciproxifan] |  | No inhibition | 
3 | Clc1ccc(CCCOCCCN2CCCCC2)cc1 [Pitolisant] |  | No inhibition | 
4 | O=C(c1ccc(OCCCN2CCCCC2)cc1)C1CC1 [UCL-2190] | 13.9 ± 9.3 | No inhibition | 
5 | COc1cc2c(NC3CCN(C(C)C)CC3)nc(N3CCC(F)(F)CC3)nc2cc1OCCCN1CCCC1 [UNC-0642] | 99.9 ± 0.09 |  | IC50 ([4]; fluorescence polarization, 12 concentrations in triplicates): 2700 nM; Ki [2]: 1.8 nM
